Results reported in patent US11352604B2, “Method of making cardiomyocytes from human pluripotent cells” (Wisconsin Alumni Research Foundation, priority 2016, dated 2022).

Columns and labels:
hPSC-CMs = assay: Transmission electron microscopy of sarcomeres; type: cell-based, human; conditions: day 30 hPSC-CMs from pI:C-treated progenitors
Source text: Differentiated H9-cTnT-GFP line hPSC-CMs at day 30 were washed twice with sodium phosphate buffer and fixed and maintained in sodium phosphate buffer with 4% paraformaldehyde (PFA) until pelleting and processing for TEM as previously described (Raval et al., 2015).

[1] = system: hPSC-derived cardiac progenitors and hPSC-CMs; assay: RT-qPCR gene expression in progenitors or cardiomyocytes; type: cell-based, human
Description: Frozen cell pellets from progenitors or cardiomyocytes in the 19-9-11 iPS cell line were thawed and RNA isolated using RNeasy spin columns with on-column DNase treatment according to the manufacturer's instructions (Qiagen). 500 ng of isolated RNA was used as template for reverse transcription using Biorad iScript RT supermix according to the manufacturer's instructions. 2.5 ng of derived cDNA was then used as template in qPCR with Taqman® primers bearing FAM-MGB dyes for genes of interest in a 20 μL reaction with Taqman® universal PCR supermix and the manufacturer's recommended cycling conditions (Thermo Fisher Scientific).

[2] = primed vs untreated cardiac progenitors, qPCR

polyinosinic-polycytidylic acid [pI:C]
sarcomere ultrastructure (hPSC-CMs): longer, more regular and compact sarcomeres that contained I-bands | myofilament gene expression ([1]; day 9 cells, treated vs untreated progenitors): increased expression of all myofilament genes studied | expression of cardiomyocyte maturation genes such as cTnI and αMHC ([1]; day 20 pPSC-CM, pI:C vs untreated): increased the expression levels | expression of cardiac fibroblast genes (Thy1, MMP1, Collagen 1a, WT1) ([1]; pI:C treatment vs untreated): downregulated | levels of type I HDAC1-3 [1, 2]: unchanged to unregulated levels | levels of type II histone deacetylases (HDAC4-7) [1, 2]: universally lower levels
